Laboratory results as given in patent publication US10202377B2, “3-(1H-benzo[D]imidazol-2-yl)-1H-pyrazolo[3,4-C]pyridine and therapeutic uses thereof” (Samumed, LLC, priority 2014, dated 2019).

Assays:
[1] = tested on: primary human fibroblasts derived from IPF patients (LL29 cells); assay: Inhibition of fibrosis (αSMA staining) in TGF-β1-treated primary human fibroblasts from IPF patients; type: cell-based; conditions: Fibroblast, 96 h, TGF-β1 20 ng/mL, 4 days
Description: The above synthesized compounds were screened using primary human fibroblasts (derived from IPF patients) treated with TGF-β1 to determine their ability to inhibit the fibrotic process.
Compound Screening: Each compound was dissolved in DMSO as a 10 mM stock and used to prepare compound source plates. […] LL29 cells were plated at 1,500 cells/well in 80 μl/well F12 medium supplemented with 1% Fetal Bovine Serum. One hour after addition of the cells, TGF-β1 (Peprotech; 20 ng/mL) was added to the plates to induce fibrosis (ref. 1 and 2 above). Wells treated with TGF-β1 and containing DMSO were used as controls. Cells were incubated at 37° C. and 5% CO2 for 4 days. Following incubation for 4 days, SYTOX green nucleic acid stain (Life Technologies [Thermo Fisher Scientific]) was added to the wells at a final concentration of 1 uM and incubated at room temperature for 30 min. Cells were then fixed using 4% formaldehyde (Electron Microscopy Sciences), washed 3 times with PBS followed by blocking and permeabilization using 3% Bovine Serum Albumin (BSA; Sigma) and 0.3% Triton X-100 (Sigma) in PBS. Cells were then stained with antibody specific to α-smooth muscle actin (aSMA; Abcam) (ref. 1 and 2 above) in 3% Bovine Serum Albumin (BSA; Sigma) and 0.3% Triton X-100 (Sigma) in PBS, and incubated overnight at 4° C. […] Dead or apoptotic cells were excluded from analysis based on positive SYTOX green staining. % of total cells positive for αSMA were counted in each well and normalized to the average of 11 wells treated with TGF-β1 on the same plate using Dotmatics' Studies Software. […] The EC50 values are reported.

[2] = tested on: Wnt activity (Sp5-Luc reporter, SW480 colon carcinoma cells); assay: Sp5-Luc Wnt reporter gene screening assay in SW480 colon carcinoma cells; conditions: Homo sapiens

SMILES	EC50 [1] [nM]	IC50 [2] [nM]
CN(C)CCNc1cc(F)cc(-c2cccc3[nH]c(-c4n[nH]c5cnc(-c6cncc(NC(=O)C(C)(C)C)c6)cc45)nc23)c1 [Compound 450, N-(5-(3-(4-(3-((2-(Dimethylamino)ethyl)amino)-5-fluorophenyl)-1H-benzo[d]imidazol-2-yl)-1H-pyrazolo[3,4-c]pyridin-5-yl)pyridin-3-yl)pivalamide]	85	159
Cc1ccc(-c2cccc3[nH]c(-c4n[nH]c5cnc(-c6cncc(NC(=O)C7CCCC7)c6)cc45)nc23)s1 [Compound 385, N-(5-(3-(4-(5-Methylthiophen-2-yl)-1H-benzo[d]imidazol-2-yl)-1H-pyrazolo[3,4-c]pyridin-5-yl)pyridin-3-yl)cyclopentanecarboxamide]	20	33.1
Cc1cn(-c2cccc3[nH]c(-c4n[nH]c5cnc(-c6cncc(NC(=O)C7CCC7)c6)cc45)nc23)cn1 [Compound 202, N-(5-(3-(4-(4-Methyl-1H-imidazol-1-yl)-1H-benzo[d]imidazol-2-yl)-1H-pyrazolo[3,4-c]pyridin-5-yl)pyridin-3-yl)cyclobutanecarboxamide]	9	63.2
Fc1cccc(-c2cccc3[nH]c(-c4n[nH]c5cnc(-c6cnccn6)cc45)nc23)c1 [Compound 954, 3-(4-(3-Fluorophenyl)-1H-benzo[d]imidazol-2-yl)-5-(pyrazin-2-yl)-1H-pyrazolo[3,4-c]pyridine]	253	45
Fc1cccc(-c2cccc3[nH]c(-c4n[nH]c5cnc(C6CCNCC6)cc45)nc23)c1 [Compound 937, 3-(4-(3-Fluorophenyl)-1H-benzo[d]imidazol-2-yl)-5-(piperidin-4-yl)-1H-pyrazolo[3,4-c]pyridine]	9990	3160
CN1CCN(c2cccc3[nH]c(-c4n[nH]c5cnc(-c6cncnc6)cc45)nc23)CC1 [Compound 234, 3-(4-(4-Methylpiperazin-1-yl)-1H-benzo[d]imidazol-2-yl)-5-(pyrimidin-5-yl)-1H-pyrazolo[3,4-c]pyridine]	9	798
O=C(Nc1cncc(-c2cc3c(-c4nc5c(-c6ccccc6F)cccc5[nH]4)n[nH]c3cn2)c1)C1CCCC1 [Compound 73, N-(5-(3-(4-(2-Fluorophenyl)-1H-benzo[d]imidazol-2-yl)-1H-pyrazolo[3,4-c]pyridin-5-yl)pyridin-3-yl)cyclopentanecarboxamide]	1190	123
c1cncc(-c2cccc3[nH]c(-c4n[nH]c5cnc(-c6cncc(CN7CCCCC7)c6)cc45)nc23)c1 [Compound 93, 5-(5-(Piperidin-1-ylmethyl)pyridin-3-yl)-3-(4-(pyridin-3-yl)-1H-benzo[d]imidazol-2-yl)-1H-pyrazolo[3,4-c]pyridine]	9	534
CCCC(=O)Nc1cncc(-c2cc3c(-c4nc5c(-c6cc(F)cc(CNS(C)(=O)=O)c6)cccc5[nH]4)n[nH]c3cn2)c1 [Compound 433, N-(5-(3-(4-(3-Fluoro-5-(methylsulfonamidomethyl)phenyl)-1H-benzo[d]imidazol-2-yl)-1H-pyrazolo[3,4-c]pyridin-5-yl)pyridin-3-yl)butyramide]	9	28.5
FC1(F)CCN(Cc2cncc(-c3cc4c(-c5nc6c(N7CCCCC7)cccc6[nH]5)n[nH]c4cn3)c2)C1 [Compound 181, 5-(5-((3,3-Difluoropyrrolidin-1-yl)methyl)pyridin-3-yl)-3-(4-(piperidin-1-yl)-1H-benzo[d]imidazol-2-yl)-1H-pyrazolo[3,4-c]pyridine]	9	87.1
CC(C)CC(=O)Nc1cncc(-c2cc3c(-c4nc5c(-c6cc(O)cc(F)c6)cccc5[nH]4)n[nH]c3cn2)c1 [Compound 1350, N-(5-(3-(4-(3-Fluoro-5-hydroxyphenyl)-1H-benzo[d]imidazol-2-yl)-1H-pyrazolo[3,4-c]pyridin-5-yl)pyridin-3-yl)-3-methylbutanamide]	9	> 10000
CC(C)C(=O)Nc1cncc(-c2cc3c(-c4nc5c(-c6cccnc6)cccc5[nH]4)n[nH]c3cn2)c1 [Compound 87, N-(5-(3-(4-(Pyridin-3-yl)-1H-benzo[d]imidazol-2-yl)-1H-pyrazolo[3,4-c]pyridin-5-yl)pyridin-3-yl)isobutyramide]	124	45.4
Fc1cccc(-c2cccc3[nH]c(-c4n[nH]c5cnc(-c6cncc(CN7CCC(F)(F)C7)c6)cc45)nc23)c1 [Compound 25, 5-(5-((3,3-Difluoropyrrolidin-1-yl)methyl)pyridin-3-yl)-3-(4-(3-fluorophenyl)-1H-benzo[d]imidazol-2-yl)-1H-pyrazolo[3,4-c]pyridine]	48	87.3
CC(=O)c1ccc(-c2cccc3[nH]c(-c4n[nH]c5cnc(-c6cccnc6)cc45)nc23)s1 [Compound 394, 1-(5-(2-(5-(Pyridin-3-yl)-1H-pyrazolo[3,4-c]pyridin-3-yl)-1H-benzo[d]imidazol-4-yl)thiophen-2-yl)ethan-1-one]	110	44.3
Cc1ccncc1-c1cc2c(-c3nc4c(-c5ccsc5)cccc4[nH]3)n[nH]c2cn1 [Compound 265, 5-(4-Methylpyridin-3-yl)-3-(4-(thiophen-3-yl)-1H-benzo[d]imidazol-2-yl)-1H-pyrazolo[3,4-c]pyridine]	9	19.4
O=C(Nc1cncc(-c2cc3c(-c4nc5c(-c6ccsc6)cccc5[nH]4)n[nH]c3cn2)c1)c1ccccc1 [Compound 271, N-(5-(3-(4-(Thiophen-3-yl)-1H-benzo[d]imidazol-2-yl)-1H-pyrazolo[3,4-c]pyridin-5-yl)pyridin-3-yl)benzamide]	9	53.8
CN(C)CCOc1cncc(-c2cc3c(-c4nc5c(-c6cccc(F)c6)cccc5[nH]4)n[nH]c3cn2)c1 [Compound 947, 2-((5-(3-(4-(3-Fluorophenyl)-1H-benzo[d]imidazol-2-yl)-1H-pyrazolo[3,4-c]pyridin-5-yl)pyridin-3-yl)oxy)-N,N-dimethylethan-1-amine]	9990	463
CC(C)(C)CC(=O)Nc1cncc(-c2cc3c(-c4nc5c(-c6ccccc6F)cccc5[nH]4)n[nH]c3cn2)c1 [Compound 68, N-(5-(3-(4-(2-Fluorophenyl)-1H-benzo[d]imidazol-2-yl)-1H-pyrazolo[3,4-c]pyridin-5-yl)pyridin-3-yl)-3,3-dimethylbutanamide]	1670	164
CC(C)CC(=O)Nc1cncc(-c2cc3c(-c4nc5c(-c6ccc(F)cc6)cccc5[nH]4)n[nH]c3cn2)c1 [Compound 28, N-(5-(3-(4-(4-Fluorophenyl)-1H-benzo[d]imidazol-2-yl)-1H-pyrazolo[3,4-c]pyridin-5-yl)pyridin-3-yl)-3-methylbutanamide]	741	90.8
O=C(Nc1cncc(-c2cc3c(-c4nc5c(-c6cccc(F)c6)cccc5[nH]4)n[nH]c3cn2)c1)C1CCC1 [Compound 20]	10	74.4
CS(=O)(=O)NCc1cc(F)cc(-c2cccc3[nH]c(-c4n[nH]c5cnc(-c6cncnc6)cc45)nc23)c1 [Compound 442, N-(3-Fluoro-5-(2-(5-(pyrimidin-5-yl)-1H-pyrazolo[3,4-c]pyridin-3-yl)-1H-benzo[d]imidazol-4-yl)benzyl)methanesulfonamide]	9	26
CN1CCN(c2cccc3[nH]c(-c4n[nH]c5cnc(-c6cncc(NC(=O)C7CCCC7)c6)cc45)nc23)CC1 [Compound 229, N-(5-(3-(4-(4-Methylpiperazin-1-yl)-1H-benzo[d]imidazol-2-yl)-1H-pyrazolo[3,4-c]pyridin-5-yl)pyridin-3-yl)cyclopentanecarboxamide]	9990	628
CCCC(=O)Nc1cncc(-c2cc3c(-c4nc5c(-c6ccc(C)s6)cccc5[nH]4)n[nH]c3cn2)c1 [Compound 381, N-(5-(3-(4-(5-Methylthiophen-2-yl)-1H-benzo[d]imidazol-2-yl)-1H-pyrazolo[3,4-c]pyridin-5-yl)pyridin-3-yl)butyramide]	79	21.5
CC(C)(C)C(=O)Nc1cncc(-c2cc3c(-c4nc5c(-c6ccsc6)cccc5[nH]4)n[nH]c3cn2)c1 [Compound 268, N-(5-(3-(4-(Thiophen-3-yl)-1H-benzo[d]imidazol-2-yl)-1H-pyrazolo[3,4-c]pyridin-5-yl)pyridin-3-yl)pivalamide]	9	76.1
CCC(=O)Nc1cncc(-c2cc3c(-c4nc5c(-c6cccs6)cccc5[nH]4)n[nH]c3cn2)c1 [Compound 313, N-(5-(3-(4-(Thiophen-2-yl)-1H-benzo[d]imidazol-2-yl)-1H-pyrazolo[3,4-c]pyridin-5-yl)pyridin-3-yl)propionamide]	455	126
O=C(Nc1cncc(-c2cc3c(-c4nc5c(-c6ccc(F)cc6)cccc5[nH]4)n[nH]c3cn2)c1)C1CCC1 [Compound 46, N-(5-(3-(4-(4-Fluorophenyl)-1H-benzo[d]imidazol-2-yl)-1H-pyrazolo[3,4-c]pyridin-5-yl)pyridin-3-yl)cyclobutanecarboxamide]	94	48.9
